We go through 1 compound from article PMC3004370, “PI3Kα Inhibitors That Inhibit Metastasis” (Oncotarget, 2010).

A value given as a limit tells only on which side of the number the result lay.

The target of one assay is T1, p110β (Homo sapiens, UniProt P42338).
T1 construct: His-tag; made in house; host or cells: Sf9 insect cells (baculovirus)
Nature of the assay: Biochemical PI3K inhibition assay, p110β. From the text: (§1) cDNA clones of PIK3CA, PIK3CB and PIK3CG were obtained from Origene (Rockville, MD, USA). PIK3CD was generously provided by Novartis Pharmaceuticals. The cDNA clones were sub-cloned into pFastBac His-Tag (Invitrogen, Carlsbad, CA, USA) and baculovirus clones were generated by the Bac-to-Bac expression system (Invitrogen). p110α, p110β and p110δ were co-expressed in Sf9 insect cells (Invitrogen) with a nSH2-iSH2 fragment of the regulatory subunit p85 comprising AA residues 322 to 600 [4]. p110γ was expressed without a regulatory subunit. Sf9 cells were lysed in a buffer containing 50 mM sodium phosphate, pH 8.0, 400 mM NaCl, 5% glycerol, 1% Triton X-100, 10 mM 2-mercaptoethanol, 1 mM orthovanadate, 10 mM imidazole, and sonicated on ice for 1 minute. Proteins were purified by adding Ni-NTA Superflow beads (Qiagen, Valencia, CA, USA) to the lysate and subsequent rolling for 30 min at 4°C. Beads were washed twice with 50 mM phosphate buffer, pH 8.0, 0.5 M NaCl, 50 mM Imidazole, 2 mM DTT and eluted in the same buffer but with 200 mM imidazole. Purified PI3K's were mixed 1:1 with glycerol and stored at -20°C.
(§2) J-series inhibitors were dissolved, serial diluted in DMSO and deposited into 96 well plates at a final DMSO concentration of 1%. We used a novel assay to determine their potency and selectivity. In brief, micelles of 2.5 μg L-a-Phosphatidylinositol and 2.5 μg 1,2-Diacyl-sn-glycero-3-phospho-L-serine were formed by sonication, mixed with the individual PI3K isoforms and added to the drug dilutions in a reaction buffer containing 10 mM HEPES, 25 mM NaCl, 0.125 μg/μl BSA, and 2 mM BME (final concentrations). Reactions were timed after the addition of 10 μM ATP with 40 μCi/ml γ-32P-ATP (PerkinElmer, Waltham, MA, USA) and 2 mM MgCl2 (all final concentrations). The reactions were terminated after two hours by the addition of 2 N HCl and the lipids extracted with 1:1 MetOH/Chloroform. Radio-labeled phosphatidyl-inositol-3-phosphate in the extracted organic fraction was quantified after the addition of Microscint O (PerkinElmer) using a TopCount 96 well plate scintillation counter (PerkinElmer). IC50 concentrations and inhibition curves were calculated using Prism 5 (GraphPad Software, La Jolla, CA).

Another assay deals with T2, p110γ (Homo sapiens, UniProt P48736).
T2 construct: His-tag; made in house; host or cells: Sf9 insect cells (baculovirus)
T2 sequence (P48736 whole entry): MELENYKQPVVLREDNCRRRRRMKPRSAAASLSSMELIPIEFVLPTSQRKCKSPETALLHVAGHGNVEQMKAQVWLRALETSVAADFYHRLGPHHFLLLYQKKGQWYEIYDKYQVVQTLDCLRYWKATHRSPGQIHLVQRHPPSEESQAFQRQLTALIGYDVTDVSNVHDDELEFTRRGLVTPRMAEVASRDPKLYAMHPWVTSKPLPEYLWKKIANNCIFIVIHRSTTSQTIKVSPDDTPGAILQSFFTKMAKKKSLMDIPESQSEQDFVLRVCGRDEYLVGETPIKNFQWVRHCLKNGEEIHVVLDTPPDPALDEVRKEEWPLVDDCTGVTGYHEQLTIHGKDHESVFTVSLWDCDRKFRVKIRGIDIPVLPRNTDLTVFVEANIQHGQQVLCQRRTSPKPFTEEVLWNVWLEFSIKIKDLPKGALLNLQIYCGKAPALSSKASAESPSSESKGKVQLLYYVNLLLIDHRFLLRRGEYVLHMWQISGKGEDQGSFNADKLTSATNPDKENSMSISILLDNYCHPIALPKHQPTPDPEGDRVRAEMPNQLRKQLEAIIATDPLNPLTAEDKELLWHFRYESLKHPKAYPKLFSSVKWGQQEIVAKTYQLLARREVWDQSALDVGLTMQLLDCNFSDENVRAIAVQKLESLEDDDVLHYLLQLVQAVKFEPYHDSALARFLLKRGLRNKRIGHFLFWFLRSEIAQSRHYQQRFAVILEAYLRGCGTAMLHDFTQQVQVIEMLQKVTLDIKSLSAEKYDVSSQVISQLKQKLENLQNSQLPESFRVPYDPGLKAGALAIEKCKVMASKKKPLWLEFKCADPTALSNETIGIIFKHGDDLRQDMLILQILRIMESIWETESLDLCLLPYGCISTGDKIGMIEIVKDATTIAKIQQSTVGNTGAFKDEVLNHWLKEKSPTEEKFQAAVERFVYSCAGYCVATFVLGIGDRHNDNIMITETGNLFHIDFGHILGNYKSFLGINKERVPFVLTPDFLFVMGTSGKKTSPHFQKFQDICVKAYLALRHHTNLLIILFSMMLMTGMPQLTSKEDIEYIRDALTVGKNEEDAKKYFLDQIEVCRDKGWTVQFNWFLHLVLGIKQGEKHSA
Nature of the assay: Biochemical PI3K inhibition assay, p110γ.
Excerpt: as §1, §2

In the next assay the target is T3, CDK5/p35 (Homo sapiens, UniProt Q00535).
T3 construct: purchased Millipore (KinaseProfiler service)
T3 sequence (Q00535 whole entry): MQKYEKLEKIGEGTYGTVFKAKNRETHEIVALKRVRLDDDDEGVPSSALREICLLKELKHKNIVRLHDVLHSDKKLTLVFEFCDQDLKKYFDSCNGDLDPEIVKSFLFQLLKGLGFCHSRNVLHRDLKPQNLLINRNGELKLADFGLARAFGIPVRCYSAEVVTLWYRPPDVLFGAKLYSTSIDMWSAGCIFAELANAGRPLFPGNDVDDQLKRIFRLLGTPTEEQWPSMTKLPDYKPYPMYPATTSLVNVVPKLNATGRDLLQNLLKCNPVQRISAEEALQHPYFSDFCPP
T3 sequence (Q15078 whole entry partner): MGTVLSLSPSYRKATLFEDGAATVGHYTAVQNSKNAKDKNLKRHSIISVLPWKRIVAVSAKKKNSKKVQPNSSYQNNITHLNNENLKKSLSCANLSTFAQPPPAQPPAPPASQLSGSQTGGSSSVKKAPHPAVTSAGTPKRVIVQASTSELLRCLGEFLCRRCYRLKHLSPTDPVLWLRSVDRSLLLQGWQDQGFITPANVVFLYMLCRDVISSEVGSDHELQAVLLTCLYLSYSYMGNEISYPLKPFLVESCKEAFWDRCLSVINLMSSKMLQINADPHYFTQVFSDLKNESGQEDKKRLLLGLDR
Nature of the assay: Millipore KinaseProfiler. The format is biochemical. The note with it: read-out: % of control. From the text: (§3) Supplement oncotarget-01-339-s001.doc, table 1: Supplementary Table 1. Millipore KinaseProfiler excerpt | column: % of control

The target of a further assay is T4, CLK2 (Homo sapiens, UniProt P49760).
T4 construct: purchased Millipore (KinaseProfiler service)
T4 sequence (P49760 whole entry): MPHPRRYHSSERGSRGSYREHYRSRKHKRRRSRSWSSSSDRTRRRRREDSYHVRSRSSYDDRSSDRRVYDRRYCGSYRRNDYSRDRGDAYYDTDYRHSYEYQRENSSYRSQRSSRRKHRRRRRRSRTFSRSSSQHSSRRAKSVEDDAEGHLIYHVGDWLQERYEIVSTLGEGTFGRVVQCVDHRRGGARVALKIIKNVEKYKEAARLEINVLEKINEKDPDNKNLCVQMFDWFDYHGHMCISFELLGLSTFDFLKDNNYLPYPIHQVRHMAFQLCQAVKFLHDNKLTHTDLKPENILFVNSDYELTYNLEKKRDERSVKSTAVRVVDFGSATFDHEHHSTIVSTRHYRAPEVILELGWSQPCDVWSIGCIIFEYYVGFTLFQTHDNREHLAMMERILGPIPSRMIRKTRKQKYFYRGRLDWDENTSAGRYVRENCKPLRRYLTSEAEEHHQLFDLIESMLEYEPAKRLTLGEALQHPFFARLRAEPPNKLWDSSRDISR
Nature of the assay: Millipore KinaseProfiler. The format is biochemical. The note with it: read-out: % of control.
Excerpt: as §3

A further assay deals with T5, EphB1 (Homo sapiens, UniProt P54762).
T5 construct: purchased Millipore (KinaseProfiler service)
T5 sequence (P54762 18-984): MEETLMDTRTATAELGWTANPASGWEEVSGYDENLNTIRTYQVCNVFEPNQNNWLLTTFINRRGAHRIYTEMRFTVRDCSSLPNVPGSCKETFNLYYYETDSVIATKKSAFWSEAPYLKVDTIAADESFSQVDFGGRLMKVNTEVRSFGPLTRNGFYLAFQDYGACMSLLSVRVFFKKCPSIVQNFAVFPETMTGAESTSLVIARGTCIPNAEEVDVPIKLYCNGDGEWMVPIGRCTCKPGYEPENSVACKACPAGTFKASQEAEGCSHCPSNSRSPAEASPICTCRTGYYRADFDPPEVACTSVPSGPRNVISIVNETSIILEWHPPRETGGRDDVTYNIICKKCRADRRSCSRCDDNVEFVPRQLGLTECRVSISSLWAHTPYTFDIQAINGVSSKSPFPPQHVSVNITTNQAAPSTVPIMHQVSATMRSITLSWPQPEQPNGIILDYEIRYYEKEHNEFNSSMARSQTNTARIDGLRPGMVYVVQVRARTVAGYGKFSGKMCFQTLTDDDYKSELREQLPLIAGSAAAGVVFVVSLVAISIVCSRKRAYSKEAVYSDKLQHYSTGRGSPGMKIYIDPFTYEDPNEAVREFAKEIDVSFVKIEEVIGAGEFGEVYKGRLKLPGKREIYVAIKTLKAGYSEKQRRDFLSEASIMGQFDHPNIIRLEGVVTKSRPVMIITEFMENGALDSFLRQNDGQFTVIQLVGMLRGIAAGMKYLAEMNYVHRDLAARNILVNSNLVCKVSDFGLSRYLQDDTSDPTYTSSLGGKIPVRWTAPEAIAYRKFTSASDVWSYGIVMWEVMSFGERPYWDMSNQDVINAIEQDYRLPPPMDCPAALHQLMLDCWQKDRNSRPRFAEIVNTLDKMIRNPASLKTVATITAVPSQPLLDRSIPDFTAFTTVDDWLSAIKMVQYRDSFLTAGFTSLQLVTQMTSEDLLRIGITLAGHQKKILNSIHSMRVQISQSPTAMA
In words: Millipore KinaseProfiler. The format is biochemical. The note with it: read-out: % of control.
Excerpt: as §3

A further assay has as its target T6, Flt3 (Homo sapiens, UniProt P36888).
T6 construct: purchased Millipore (KinaseProfiler service)
In words: Millipore KinaseProfiler. The format is biochemical. Conditions: read-out: % of control.
Excerpt: as §3

For another assay, the target named is T7, Flt3(D835Y) (Homo sapiens, UniProt P36888, D835Y).
T7 construct: purchased Millipore (KinaseProfiler service)
Nature of the assay: Millipore KinaseProfiler. The format is biochemical. Conditions: read-out: % of control.
Excerpt: as §3

For a further assay, the target named is T8, IRAK1 (Homo sapiens, UniProt P51617).
T8 construct: purchased Millipore (KinaseProfiler service)
In words: Millipore KinaseProfiler. The class given is biochemical. The note with it: read-out: % of control.
Excerpt: as §3

A further assay addresses T9, IRAK4 (Homo sapiens, UniProt Q9NWZ3).
T9 construct: purchased Millipore (KinaseProfiler service)
Nature of the assay: Millipore KinaseProfiler. The class given is biochemical. The note with it: read-out: % of control.
Excerpt: as §3

A further assay addresses T10, NEK2 (Homo sapiens, UniProt P51955).
T10 construct: purchased Millipore (KinaseProfiler service)
Nature of the assay: Millipore KinaseProfiler. The class given is biochemical. The note with it: read-out: % of control.
Excerpt: as §3

The next assay has as its target T11, PKCθ (Homo sapiens, UniProt Q04759).
T11 construct: purchased Millipore (KinaseProfiler service)
In words: Millipore KinaseProfiler. The format is biochemical. The note with it: read-out: % of control.
Excerpt: as §3

For another assay, the target named is T12, PTK5 (Homo sapiens, UniProt P42685).
T12 construct: purchased Millipore (KinaseProfiler service)
Nature of the assay: Millipore KinaseProfiler. The class given is biochemical. Conditions: read-out: % of control.
Excerpt: as §3

A further assay concerns the target T13, Ret (Homo sapiens, UniProt P07949).
T13 construct: purchased Millipore (KinaseProfiler service)
Nature of the assay: Millipore KinaseProfiler. The class given is biochemical. The note with it: read-out: % of control.
Excerpt: as §3

A further assay deals with T14, cSRC (Homo sapiens, UniProt P12931).
T14 construct: purchased Millipore (KinaseProfiler service)
T14 sequence (P12931 whole entry): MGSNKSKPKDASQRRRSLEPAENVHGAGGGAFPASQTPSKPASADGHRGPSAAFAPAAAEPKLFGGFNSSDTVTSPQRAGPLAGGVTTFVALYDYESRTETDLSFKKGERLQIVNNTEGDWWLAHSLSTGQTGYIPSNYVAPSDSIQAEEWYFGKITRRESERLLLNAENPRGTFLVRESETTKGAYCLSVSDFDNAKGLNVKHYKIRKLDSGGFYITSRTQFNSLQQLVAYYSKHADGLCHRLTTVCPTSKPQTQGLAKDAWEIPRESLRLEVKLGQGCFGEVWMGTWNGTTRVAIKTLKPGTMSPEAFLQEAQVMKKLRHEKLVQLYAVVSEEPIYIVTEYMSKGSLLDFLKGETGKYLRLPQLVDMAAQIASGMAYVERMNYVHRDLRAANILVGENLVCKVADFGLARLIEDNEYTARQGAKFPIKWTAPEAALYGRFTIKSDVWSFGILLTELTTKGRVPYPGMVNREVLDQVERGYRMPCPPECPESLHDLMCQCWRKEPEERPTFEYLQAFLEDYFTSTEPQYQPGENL
In words: Millipore KinaseProfiler. The note with it: read-out: % of control. The format is biochemical.
Excerpt: as §3

Another assay addresses T15, mTOR (Homo sapiens, UniProt P42345).
T15 construct: purchased Millipore (KinaseProfiler service)
In words: Panel of 273 kinases, mTOR. The format is biochemical. As for the experimental part:
The compounds were also tested for their capacity to inhibit two common mutant forms of PI3Kα – E545K and H1047R [2, 33]. None of the compounds discriminated between the wild-type (wt) and mutant forms of the enzyme (data not shown). Finally, we also tested one of the compounds (J124, chosen for reasons discussed later) against a panel of 273 kinases.

T1 sequence (P42338 whole entry): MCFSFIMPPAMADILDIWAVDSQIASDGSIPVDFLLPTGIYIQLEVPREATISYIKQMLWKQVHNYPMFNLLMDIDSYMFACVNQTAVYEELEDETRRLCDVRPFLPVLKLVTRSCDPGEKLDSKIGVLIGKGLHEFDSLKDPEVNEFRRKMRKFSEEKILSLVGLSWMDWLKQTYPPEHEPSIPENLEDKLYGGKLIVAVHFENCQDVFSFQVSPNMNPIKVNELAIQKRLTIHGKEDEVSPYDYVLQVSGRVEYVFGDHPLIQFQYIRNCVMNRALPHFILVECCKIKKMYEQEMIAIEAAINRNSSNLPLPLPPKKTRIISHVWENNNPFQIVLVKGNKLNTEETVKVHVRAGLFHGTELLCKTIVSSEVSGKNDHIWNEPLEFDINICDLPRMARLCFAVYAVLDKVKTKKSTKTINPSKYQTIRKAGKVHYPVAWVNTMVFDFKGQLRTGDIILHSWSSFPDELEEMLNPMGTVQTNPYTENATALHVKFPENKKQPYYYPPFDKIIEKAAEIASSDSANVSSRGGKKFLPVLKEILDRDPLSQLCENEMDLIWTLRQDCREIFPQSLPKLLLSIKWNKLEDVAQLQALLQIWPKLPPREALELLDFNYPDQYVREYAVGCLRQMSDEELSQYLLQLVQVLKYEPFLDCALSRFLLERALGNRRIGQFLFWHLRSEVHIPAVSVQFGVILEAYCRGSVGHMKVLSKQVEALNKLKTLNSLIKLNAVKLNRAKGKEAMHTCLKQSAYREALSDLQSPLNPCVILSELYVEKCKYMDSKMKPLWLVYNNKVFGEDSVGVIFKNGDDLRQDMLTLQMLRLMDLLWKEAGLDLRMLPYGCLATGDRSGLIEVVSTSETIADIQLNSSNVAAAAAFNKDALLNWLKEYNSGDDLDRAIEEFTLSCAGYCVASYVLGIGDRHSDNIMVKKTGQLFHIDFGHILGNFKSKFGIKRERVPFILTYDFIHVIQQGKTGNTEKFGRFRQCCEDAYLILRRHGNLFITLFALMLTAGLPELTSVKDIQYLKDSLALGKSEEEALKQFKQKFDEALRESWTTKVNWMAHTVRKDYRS
T1 sequence (P27986 322-600 partner limits assumed): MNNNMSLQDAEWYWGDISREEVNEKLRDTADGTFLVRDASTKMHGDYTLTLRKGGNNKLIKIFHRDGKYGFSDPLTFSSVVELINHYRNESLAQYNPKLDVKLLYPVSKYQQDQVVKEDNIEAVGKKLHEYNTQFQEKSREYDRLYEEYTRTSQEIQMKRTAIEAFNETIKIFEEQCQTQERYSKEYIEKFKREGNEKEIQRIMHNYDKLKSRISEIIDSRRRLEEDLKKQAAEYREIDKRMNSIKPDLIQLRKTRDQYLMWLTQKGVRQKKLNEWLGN

As for `CCN(/N=C/c1cnc2ccc(Br)cn12)S(=O)(=O)c1cc([N+](=O)[O-])c(NC(=O)C(F)(F)F)cc1C` [J124], the IC50 was found to be 270 nM on p110β (10 μM ATP, two hours) and 380 nM on p110γ (10 μM ATP, two hours, no regulatory subunit). For the same compound, on p110β (relative to PI3Kα), the “selectivity against PI3Kβ” value is recorded as more than 20 fold. In addition, the “selectivity against PI3Kγ” value at p110γ (relative to PI3Kα) is given as more than 30 fold. The remaining activity at 0.011 µM at CDK5/p35 is 37%; at CLK2, 5%; on EphB1, 46%; at Flt3, 10%; at Flt3(D835Y) it was 3%; at IRAK1, 42%. For the same compound, the remaining activity at 0.011 µM at IRAK4 was found to be 48%; at NEK2, 42%; at PKCθ, 35%; on PTK5 it was 11%; at Ret it was 49%; at cSRC it was 48%. Also, the “inhibition of mTOR with an IC50 of 11 nM or lower” value against mTOR is “not mTOR”.
